We go through two compounds from ChEMBL document CHEMBL5726098, “Arylquinazolines” (2019).

The assay deals with DNA-dependent protein kinase catalytic subunit (Homo sapiens, UniProt P78527). The assay is described as follows: DNA-PK Assay (Biochemical): The kinase assay was carried out in streptavidin-coated […] microtitre flashplates. […] The reaction was stopped using 50 μl/well of 200 mM EDTA. After incubation for a further 30 min at room temperature, the liquid was removed. Each well was washed three times with 100 μl of 0.9% saline solution. A nonspecific reaction (blank value) was determined using 10 μM of an innate kinase inhibitor. The radioactivity measurement was carried out using a TopCount. IC50 values were calculated in RS1.

Bounds are passed on as bounds.

A word on the IC50: it is the midpoint of a concentration-inhibition curve.

Chain of DNA-dependent protein kinase catalytic subunit (P78527 whole entry): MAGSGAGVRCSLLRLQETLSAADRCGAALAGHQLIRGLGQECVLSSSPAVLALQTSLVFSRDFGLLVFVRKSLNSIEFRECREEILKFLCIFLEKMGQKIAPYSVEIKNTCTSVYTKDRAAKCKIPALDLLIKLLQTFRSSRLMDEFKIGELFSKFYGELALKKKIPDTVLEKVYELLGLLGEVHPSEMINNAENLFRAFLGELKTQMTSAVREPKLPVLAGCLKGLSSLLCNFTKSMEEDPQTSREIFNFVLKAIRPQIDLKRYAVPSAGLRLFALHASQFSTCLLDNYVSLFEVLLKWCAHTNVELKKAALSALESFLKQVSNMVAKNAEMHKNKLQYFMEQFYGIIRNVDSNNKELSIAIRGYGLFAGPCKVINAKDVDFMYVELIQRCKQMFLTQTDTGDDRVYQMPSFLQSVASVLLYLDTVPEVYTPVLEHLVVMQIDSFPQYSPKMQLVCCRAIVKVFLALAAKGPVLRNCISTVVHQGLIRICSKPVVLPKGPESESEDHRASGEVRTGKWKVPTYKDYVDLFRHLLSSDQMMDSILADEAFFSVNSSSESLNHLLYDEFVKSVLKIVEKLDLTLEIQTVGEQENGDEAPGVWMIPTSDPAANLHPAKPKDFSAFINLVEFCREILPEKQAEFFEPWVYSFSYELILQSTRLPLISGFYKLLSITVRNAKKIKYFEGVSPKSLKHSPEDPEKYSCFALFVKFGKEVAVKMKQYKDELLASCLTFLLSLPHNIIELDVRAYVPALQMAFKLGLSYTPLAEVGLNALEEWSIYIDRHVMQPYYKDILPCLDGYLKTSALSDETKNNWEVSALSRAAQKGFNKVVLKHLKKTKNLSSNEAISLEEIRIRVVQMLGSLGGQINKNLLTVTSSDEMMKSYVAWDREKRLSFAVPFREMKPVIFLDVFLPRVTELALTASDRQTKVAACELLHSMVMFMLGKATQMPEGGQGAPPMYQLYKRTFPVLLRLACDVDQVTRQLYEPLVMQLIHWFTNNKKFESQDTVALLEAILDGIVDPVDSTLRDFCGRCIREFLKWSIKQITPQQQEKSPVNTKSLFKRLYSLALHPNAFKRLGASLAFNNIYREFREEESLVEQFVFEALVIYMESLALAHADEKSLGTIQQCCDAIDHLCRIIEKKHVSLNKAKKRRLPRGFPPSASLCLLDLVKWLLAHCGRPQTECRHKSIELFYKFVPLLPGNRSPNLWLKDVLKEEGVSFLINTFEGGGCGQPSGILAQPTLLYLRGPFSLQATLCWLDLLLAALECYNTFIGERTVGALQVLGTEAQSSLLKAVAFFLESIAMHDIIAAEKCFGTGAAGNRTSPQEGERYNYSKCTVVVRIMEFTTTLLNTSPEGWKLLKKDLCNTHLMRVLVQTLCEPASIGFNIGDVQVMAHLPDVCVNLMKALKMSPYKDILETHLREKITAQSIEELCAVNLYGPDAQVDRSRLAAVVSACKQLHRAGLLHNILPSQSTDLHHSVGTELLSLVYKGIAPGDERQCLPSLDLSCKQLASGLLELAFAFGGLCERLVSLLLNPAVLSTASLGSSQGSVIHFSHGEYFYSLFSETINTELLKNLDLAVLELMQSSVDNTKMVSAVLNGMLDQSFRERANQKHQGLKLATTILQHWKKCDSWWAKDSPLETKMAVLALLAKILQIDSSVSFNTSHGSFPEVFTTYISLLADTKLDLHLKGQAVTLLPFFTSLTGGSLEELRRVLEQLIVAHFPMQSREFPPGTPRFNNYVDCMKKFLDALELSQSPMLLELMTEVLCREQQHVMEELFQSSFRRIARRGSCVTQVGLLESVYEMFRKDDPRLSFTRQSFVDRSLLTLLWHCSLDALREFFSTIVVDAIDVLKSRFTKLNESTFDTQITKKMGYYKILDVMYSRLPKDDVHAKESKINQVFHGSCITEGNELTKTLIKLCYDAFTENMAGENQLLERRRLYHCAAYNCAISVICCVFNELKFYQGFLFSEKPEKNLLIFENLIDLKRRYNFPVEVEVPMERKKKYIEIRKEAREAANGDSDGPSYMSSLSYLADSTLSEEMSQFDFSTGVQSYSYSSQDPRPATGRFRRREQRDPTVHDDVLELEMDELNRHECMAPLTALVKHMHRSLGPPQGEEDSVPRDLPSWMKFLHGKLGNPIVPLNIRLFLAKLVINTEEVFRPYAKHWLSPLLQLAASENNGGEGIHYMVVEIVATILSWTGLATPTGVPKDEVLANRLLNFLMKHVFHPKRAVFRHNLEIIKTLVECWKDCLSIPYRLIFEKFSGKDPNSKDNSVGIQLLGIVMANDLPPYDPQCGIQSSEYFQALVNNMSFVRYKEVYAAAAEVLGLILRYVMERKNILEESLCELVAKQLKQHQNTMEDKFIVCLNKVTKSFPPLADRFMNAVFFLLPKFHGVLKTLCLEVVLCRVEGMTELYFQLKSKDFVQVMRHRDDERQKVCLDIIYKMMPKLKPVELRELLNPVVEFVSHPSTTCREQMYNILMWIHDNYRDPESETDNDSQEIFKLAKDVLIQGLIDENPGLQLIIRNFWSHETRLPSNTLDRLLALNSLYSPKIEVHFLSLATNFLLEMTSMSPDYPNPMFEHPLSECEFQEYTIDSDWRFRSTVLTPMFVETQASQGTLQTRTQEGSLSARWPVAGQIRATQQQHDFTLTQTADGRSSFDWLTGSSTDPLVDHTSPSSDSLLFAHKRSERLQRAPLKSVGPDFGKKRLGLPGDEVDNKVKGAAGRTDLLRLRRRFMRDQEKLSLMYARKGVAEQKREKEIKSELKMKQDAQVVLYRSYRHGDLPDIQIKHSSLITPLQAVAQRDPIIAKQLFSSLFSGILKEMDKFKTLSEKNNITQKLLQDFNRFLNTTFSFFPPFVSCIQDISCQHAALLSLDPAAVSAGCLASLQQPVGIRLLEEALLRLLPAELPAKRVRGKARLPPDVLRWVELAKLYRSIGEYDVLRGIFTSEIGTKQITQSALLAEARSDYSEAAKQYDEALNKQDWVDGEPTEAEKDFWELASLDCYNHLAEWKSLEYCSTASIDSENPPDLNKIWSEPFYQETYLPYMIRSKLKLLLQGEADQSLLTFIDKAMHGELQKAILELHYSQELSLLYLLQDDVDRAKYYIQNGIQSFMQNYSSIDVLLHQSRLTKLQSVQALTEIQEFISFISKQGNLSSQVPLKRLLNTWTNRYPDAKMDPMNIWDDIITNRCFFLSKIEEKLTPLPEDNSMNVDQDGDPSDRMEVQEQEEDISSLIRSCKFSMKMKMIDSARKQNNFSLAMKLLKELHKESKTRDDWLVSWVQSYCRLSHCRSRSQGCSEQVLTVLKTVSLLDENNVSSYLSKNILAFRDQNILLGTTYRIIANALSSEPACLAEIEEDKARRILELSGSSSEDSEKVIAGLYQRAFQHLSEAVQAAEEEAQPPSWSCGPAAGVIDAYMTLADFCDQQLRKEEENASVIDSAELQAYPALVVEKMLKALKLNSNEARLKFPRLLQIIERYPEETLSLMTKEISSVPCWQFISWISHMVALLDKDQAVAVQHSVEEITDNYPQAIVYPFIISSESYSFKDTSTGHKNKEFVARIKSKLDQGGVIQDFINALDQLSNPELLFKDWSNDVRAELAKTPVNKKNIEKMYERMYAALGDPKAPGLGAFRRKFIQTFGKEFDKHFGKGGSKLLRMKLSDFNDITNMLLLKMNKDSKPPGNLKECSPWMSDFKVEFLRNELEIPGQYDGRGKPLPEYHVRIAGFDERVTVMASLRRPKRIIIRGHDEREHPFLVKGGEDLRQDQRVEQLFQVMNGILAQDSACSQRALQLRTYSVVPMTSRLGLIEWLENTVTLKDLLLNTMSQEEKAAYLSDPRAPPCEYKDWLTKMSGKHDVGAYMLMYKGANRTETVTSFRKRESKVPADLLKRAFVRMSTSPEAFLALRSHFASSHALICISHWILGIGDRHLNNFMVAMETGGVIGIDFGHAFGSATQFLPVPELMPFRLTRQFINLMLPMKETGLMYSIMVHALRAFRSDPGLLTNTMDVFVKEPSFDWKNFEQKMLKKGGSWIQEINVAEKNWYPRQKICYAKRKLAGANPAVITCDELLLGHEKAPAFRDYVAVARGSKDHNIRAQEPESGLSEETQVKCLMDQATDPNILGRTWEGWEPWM

As for `OCc1csc(C(O)c2cc(-c3ncnc4cc(N5C6CCC5COC6)ccc34)c(F)cc2Cl)n1` (configuration not stated), the IC50 is more than 30 nM.

As for `NC(=O)C(c1cc(-c2ncnc3cc(N4CCOCC4)ccc23)c(F)cc1Cl)c1ncnn2cccc12` (configuration not stated), the IC50 is more than 30 nM.
